Data: US20260207570A1, “OPTIMIZED DOSING OF LERIGLITAZONE” (MINORYX THERAPEUTICS S.L., priority 2022, published 2026)
Like-named read-outs stand apart in the source and are kept apart here.

Experiment: Phase 1 single ascending dose (SAD) pharmacokinetics in healthy volunteers
Format: in vivo, human
Details: for Ka: estimated; for Vd/F: read-out: Vz/F
Procedure: Study design: A phase 1, randomized, double blind, placebo-controlled, single-center clinical study in 33 male healthy volunteers (HV) (19-54 years, 63.2-95.7 Kg) was conducted with leriglitazone HCl and divided in two parts: a single ascending dose (SAD) with three dose levels (30, 90 and 270 mg) in fasted conditions, followed with two dose levels (90 and 270 mg) in fed conditions; a multiple ascending dose (MAD) with a double-blind, parallel-design with two dose levels (135 and 270 mg) for 8 days and a separate cohort of subjects in an open-label parallel design with two dose levels (135 and 270 mg) including cerebrospinal fluid (CSF) collection on day 8. In the fasted conditions a fasting period of at least 4 hours was required before obtaining plasma samples. The food effect (FE) was assessed by comparing fasted with fed conditions (dosing after a high-fat breakfast per FDA definition with a calculated caloric content of 918 kcal). In the MAD part (fed) the medication was taken before a normal breakfast. Leriglitazone HCl was supplied by ChemConnection and an oral suspension of leriglitazone (20% w/v kleptose, 2% ethanol in 100 mM phosphate buffer pH=7.8) at 6 mg/ml was used in the study.
Blood, Urine and CSF sampling: In the SAD, blood samples were drawn at the following time points: pre-dose and 0.25, 0.5, 0.75, 1, 1.5, 2, 2.5, 3, 4, 5, 6, 8, 10, 12, 16, 24, 36, 48, 72, 96 and 120 hours post-dose. Urine was collected at pre-dose (within 12 hours prior to dosing) and over 0-6, 6-12, 12-24, 24-36, 36-48 hours post-dose collection intervals. In the MAD, blood samples were collected on day 1 at pre-dose and 0.25, 0.5, 0.75, 1, 1.5, 2, 2.5, 3, 4, 5, 6, 8, 10, 12, and 16 hours post-dose and at pre-dose and at 4 hours post-dose on day 2 to day 7, and on day 8 at pre-dose and 0.25, 0.5, 0.75, 1, 1.5, 2, 2.5, 3, 4, 5, 6, 8, 10, 12, 16, 24, 36, 48, 72, 96 and 120 hours post-dose. CSF were taken on day −1 and on day 8, at 4 hours post-dose.
Pharmacokinetic parameter calculation: PK parameters (Cmax, Tmax, t1/2, AUC0-t, CL/F, Vz/F, AUC0-t, RAUC, RCmax) were estimated using non-compartmental analysis (NCA) (Phoenix WinNonlin® Version 6.3).
Statistical analysis: Descriptive statistics for all relevant PK parameters: n, mean, minimum, median, maximum, geometric mean, and coefficient of variation (CV %); analysis of variance on Cmax and AUC to determine dose proportionality and food effect (FE).

Ka (SAD 270 mg Fasted): 1.92 (CV: 75%) 1/h | Ka (SAD 270 mg Fed): 0.49 (CV: 9%) 1/h | CL/F (SAD 270 mg fasted, n = 5, geometric mean (CV %)): 0.731 (16.2) L/h | CL/F (SAD 270 mg fed, n = 5, geometric mean (CV %)): 0.733 (17.8) L/h | food effect on overall exposure (SAD fed vs fasted, food lowered Cmax and prolonged Tmax): overall exposure was not affected | leriglitazone converted to M3 (from individual phase 1 plasma PK data): up to 51% | Vd (male, human, plasma, oral, 30 mg, SAD 30 mg Fasted, NCA estimate, per kg body weight, read-out: Vss): 0.29 L/kg | Vd (male, human, plasma, oral, 30 mg, SAD 30 mg Fasted, NCA estimate, read-out: Vss): 23.1 L | Tmax (male, human, plasma, oral, 30 mg, SAD 30 mg fasted, n = 6, Median, read-out: Tmax): 0.63 h | Vd/F (male, human, plasma, oral, 30 mg, SAD 30 mg fasted, n = 6, geometric mean (CV %)): 23.2 L | AUC (male, human, plasma, oral, 30 mg, SAD 30 mg fasted, n = 6, geometric mean, read-out: AUC): 44.2 µg·h/mL | Cmax (male, human, plasma, oral, 30 mg, SAD 30 mg fasted, n = 6, plasma total, geometric mean (CV %), read-out: Cmax): 1700 ng/mL | AUC (male, human, plasma, oral, 30 mg, single dose 30 mg Fasted, read-out: AUC, Observed): 44.2 µg·h/mL | Cmax (male, human, plasma, oral, 30 mg, single dose 30 mg Fasted, read-out: Cmax, Observed): 1700 ng/mL | Tmax (male, human, plasma, oral, 30 mg, single dose 30 mg Fasted, read-out: Tmax, Observed): 0.63 h | Vd (male, human, plasma, oral, 90 mg, SAD 90 mg Fasted, NCA estimate, per kg body weight, read-out: Vss): 0.31 L/kg | Vd (male, human, plasma, oral, 90 mg, SAD 90 mg Fasted, NCA estimate, read-out: Vss): 25.2 L | Vd (male, human, plasma, oral, 90 mg, SAD 90 mg Fed, NCA estimate, per kg body weight, read-out: Vss): 0.35 L/kg | Vd (male, human, plasma, oral, 90 mg, SAD 90 mg Fed, NCA estimate, read-out: Vss): 28.1 L | Tmax (male, human, plasma, oral, 90 mg, SAD 90 mg fasted, n = 6, Median, read-out: Tmax): 0.88 h | AUC(0-t) (male, human, plasma, oral, 90 mg, SAD 90 mg fasted, n = 6, geometric mean): 117 µg·h/mL | Vd/F (male, human, plasma, oral, 90 mg, SAD 90 mg fasted, n = 6, geometric mean (CV %)): 26.1 L | AUC (male, human, plasma, oral, 90 mg, SAD 90 mg fasted, n = 6, geometric mean, read-out: AUC): 121 µg·h/mL | Cmax (male, human, plasma, oral, 90 mg, SAD 90 mg fasted, n = 6, plasma total, geometric mean (CV %), read-out: Cmax): 4430 ng/mL | Tmax (male, human, plasma, oral, 90 mg, SAD 90 mg fed, n = 3, Median, read-out: Tmax): 3 h | AUC(0-t) (male, human, plasma, oral, 90 mg, SAD 90 mg fed, n = 3, geometric mean): 116 µg·h/mL | Vd/F (male, human, plasma, oral, 90 mg, SAD 90 mg fed, n = 3, geometric mean (CV %)): 27.8 L | AUC (male, human, plasma, oral, 90 mg, SAD 90 mg fed, n = 3, geometric mean, read-out: AUC): 121 µg·h/mL | Cmax (male, human, plasma, oral, 90 mg, SAD 90 mg fed, n = 3, plasma total, geometric mean (CV %), read-out: Cmax): 3170 ng/mL | AUC (male, human, plasma, oral, 90 mg, single dose 90 mg Fasted, read-out: AUC, Observed): 121 µg·h/mL | Cmax (male, human, plasma, oral, 90 mg, single dose 90 mg Fasted, read-out: Cmax, Observed): 4430 ng/mL | Tmax (male, human, plasma, oral, 90 mg, single dose 90 mg Fasted, read-out: Tmax, Observed): 0.88 h | AUC (male, human, plasma, oral, 90 mg, single dose 90 mg Fed, read-out: AUC, Observed): 121 µg·h/mL | Cmax (male, human, plasma, oral, 90 mg, single dose 90 mg Fed, read-out: Cmax, Observed): 3170 ng/mL | Tmax (male, human, plasma, oral, 90 mg, single dose 90 mg Fed, read-out: Tmax, Observed): 3 h | Vd (male, human, plasma, oral, 270 mg, SAD 270 mg Fasted, NCA estimate, per kg body weight, read-out: Vss): 0.27 L/kg | Vd (male, human, plasma, oral, 270 mg, SAD 270 mg Fasted, NCA estimate, read-out: Vss): 22.7 L | Vd (male, human, plasma, oral, 270 mg, SAD 270 mg Fed, NCA estimate, per kg body weight, read-out: Vss): 0.3 L/kg | Vd (male, human, plasma, oral, 270 mg, SAD 270 mg Fed, NCA estimate, read-out: Vss): 24.4 L | Tmax (male, human, plasma, oral, 270 mg, SAD 270 mg fasted, n = 5, Median, read-out: Tmax): 1.5 h | Vd/F (male, human, plasma, oral, 270 mg, SAD 270 mg fasted, n = 5, geometric mean (CV %)): 24 L | Tmax (male, human, plasma, oral, 270 mg, SAD 270 mg fed, n = 5, Median, read-out: Tmax): 4 h | AUC(0-t) (male, human, plasma, oral, 270 mg, SAD 270 mg fed, n = 5, geometric mean): 357 µg·h/mL | Vd/F (male, human, plasma, oral, 270 mg, SAD 270 mg fed, n = 5, geometric mean (CV %)): 24.9 L | AUC (male, human, plasma, oral, 270 mg, SAD 270 mg fed, n = 5, geometric mean, read-out: AUC): 368 µg·h/mL | Cmax (male, human, plasma, oral, 270 mg, SAD 270 mg fed, n = 5, plasma total, geometric mean (CV %), read-out: Cmax): 11500 ng/mL | Vd (male, human, plasma, oral, 270 mg, SAD Fasted doses 30, 90, 270 mg, NCA estimate, read-out: Vss, Mean): 0.29 L/kg | Vd (male, human, plasma, oral, 270 mg, SAD Fed doses 90, 270 mg, NCA estimate, read-out: Vss, Mean): 0.32 L/kg | Tmax (male, human, plasma, oral, 270 mg, SAD fasting conditions, 30, 90 and 270 mg, read-out: Tmax, range): 0.25 to 2.5 h | Tmax (male, human, plasma, oral, 270 mg, SAD fed conditions, 90 and 270 mg, read-out: Tmax): 3 to 6 h | AUC (male, human, plasma, oral, 270 mg, single dose 270 mg Fasted, read-out: AUC, Observed): 369 µg·h/mL | Cmax (male, human, plasma, oral, 270 mg, single dose 270 mg Fasted, read-out: Cmax, Observed): 13400 ng/mL | Tmax (male, human, plasma, oral, 270 mg, single dose 270 mg Fasted, read-out: Tmax, Observed): 1.5 h | AUC (male, human, plasma, oral, 270 mg, single dose 270 mg Fed, read-out: AUC, Observed): 368 µg·h/mL | Cmax (male, human, plasma, oral, 270 mg, single dose 270 mg Fed, read-out: Cmax, Observed): 11500 ng/mL | Tmax (male, human, plasma, oral, 270 mg, single dose 270 mg Fed, read-out: Tmax, Observed): 4 h | Vd (male, human, plasma, oral, PBPK model input, estimated from phase 1 SAD data, read-out: Vss): 0.29 L/kg | half-life (male, human, plasma, oral, SAD, read-out: Half-lives): 23 to 24 h | CL renal (male, human, urine, oral, PBPK model input): 0.55 mL/min
Compound: CC(O)c1ccc(CCOc2ccc(CC3SC(=O)NC3=O)cc2)nc1 (stereo not drawn) [Leriglitazone, 5-[[4-[2-[5-(1-hydroxyethyl)pyridin-2-yl]ethoxy]phenyl]methyl]-1,3-thiazolidine-2,4-dione]
dose proportionality of AUC (SAD 30, 90 and 270 mg): AUC increased proportionally with the dose
